Results from ChEMBL document CHEMBL1201862, “PubChem BioAssay data set” (2004).
Where “and” joins values, the source holds several entries; their conditions need not be identical. Identical values can stand only once. Calls of active or inactive are those of the source.

Assays:
Aminopeptidase N = molecular target: T1, Aminopeptidase N (Plasmodium falciparum FcB1/Columbia, UniProt O96935); assay: malaria alanyl aminopeptidase activity blockers – biochemical, fluorogenic H-Leu-NHMec substrate, 1536-well (AID 1445); parameters: species or system Plasmodium falciparum 3D7, 3D7
T1 sequence (O96935 whole entry): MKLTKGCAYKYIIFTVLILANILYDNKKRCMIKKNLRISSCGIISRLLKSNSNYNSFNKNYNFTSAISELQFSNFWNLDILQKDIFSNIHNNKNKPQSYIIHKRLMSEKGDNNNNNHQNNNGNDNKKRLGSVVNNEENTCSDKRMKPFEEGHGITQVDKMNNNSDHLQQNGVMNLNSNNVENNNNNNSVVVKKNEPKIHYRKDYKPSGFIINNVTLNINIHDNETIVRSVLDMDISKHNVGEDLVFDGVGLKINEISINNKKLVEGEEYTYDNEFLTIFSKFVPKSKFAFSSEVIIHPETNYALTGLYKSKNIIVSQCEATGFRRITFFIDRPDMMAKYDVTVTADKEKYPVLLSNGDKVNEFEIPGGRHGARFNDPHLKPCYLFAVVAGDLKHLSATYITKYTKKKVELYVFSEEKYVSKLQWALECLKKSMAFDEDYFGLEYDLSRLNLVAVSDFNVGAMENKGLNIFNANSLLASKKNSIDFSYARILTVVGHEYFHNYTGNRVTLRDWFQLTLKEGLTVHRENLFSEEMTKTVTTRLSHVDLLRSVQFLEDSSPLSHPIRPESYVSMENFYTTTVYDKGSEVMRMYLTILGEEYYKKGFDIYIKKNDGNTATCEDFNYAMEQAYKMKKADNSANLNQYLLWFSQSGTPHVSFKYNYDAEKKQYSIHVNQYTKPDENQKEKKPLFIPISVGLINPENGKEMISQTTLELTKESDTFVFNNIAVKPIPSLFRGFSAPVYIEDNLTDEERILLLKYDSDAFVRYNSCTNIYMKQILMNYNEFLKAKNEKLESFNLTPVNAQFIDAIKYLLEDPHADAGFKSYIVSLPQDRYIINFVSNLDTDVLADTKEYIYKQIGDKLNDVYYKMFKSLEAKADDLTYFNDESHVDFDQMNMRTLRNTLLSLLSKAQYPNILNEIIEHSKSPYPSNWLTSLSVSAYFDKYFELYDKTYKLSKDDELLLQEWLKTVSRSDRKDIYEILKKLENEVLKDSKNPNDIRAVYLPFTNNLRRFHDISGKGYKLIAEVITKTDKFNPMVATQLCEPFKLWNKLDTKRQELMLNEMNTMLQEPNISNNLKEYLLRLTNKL

Caspase-6 = molecular target: T2, Caspase-6 (Homo sapiens, UniProt P55212); assay: inhibition of CASP6 peptide cleavage – biochemical, VEID-R110 fluorescence, cherry-pick, dose response (AID 720632)
T2 sequence (P55212 whole entry): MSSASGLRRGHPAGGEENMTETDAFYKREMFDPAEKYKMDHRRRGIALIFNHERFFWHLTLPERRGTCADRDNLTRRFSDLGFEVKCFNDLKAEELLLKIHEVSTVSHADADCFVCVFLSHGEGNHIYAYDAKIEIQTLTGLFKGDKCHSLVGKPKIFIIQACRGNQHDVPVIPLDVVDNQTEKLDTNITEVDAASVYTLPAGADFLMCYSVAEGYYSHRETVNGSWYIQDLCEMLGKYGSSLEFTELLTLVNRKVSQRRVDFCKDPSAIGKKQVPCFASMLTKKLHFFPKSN

[1] = molecular target: T3, Histone-lysine N-methyltransferase NSD2 (Homo sapiens, UniProt O96028); assay type: biochemical
T3 sequence (O96028 whole entry): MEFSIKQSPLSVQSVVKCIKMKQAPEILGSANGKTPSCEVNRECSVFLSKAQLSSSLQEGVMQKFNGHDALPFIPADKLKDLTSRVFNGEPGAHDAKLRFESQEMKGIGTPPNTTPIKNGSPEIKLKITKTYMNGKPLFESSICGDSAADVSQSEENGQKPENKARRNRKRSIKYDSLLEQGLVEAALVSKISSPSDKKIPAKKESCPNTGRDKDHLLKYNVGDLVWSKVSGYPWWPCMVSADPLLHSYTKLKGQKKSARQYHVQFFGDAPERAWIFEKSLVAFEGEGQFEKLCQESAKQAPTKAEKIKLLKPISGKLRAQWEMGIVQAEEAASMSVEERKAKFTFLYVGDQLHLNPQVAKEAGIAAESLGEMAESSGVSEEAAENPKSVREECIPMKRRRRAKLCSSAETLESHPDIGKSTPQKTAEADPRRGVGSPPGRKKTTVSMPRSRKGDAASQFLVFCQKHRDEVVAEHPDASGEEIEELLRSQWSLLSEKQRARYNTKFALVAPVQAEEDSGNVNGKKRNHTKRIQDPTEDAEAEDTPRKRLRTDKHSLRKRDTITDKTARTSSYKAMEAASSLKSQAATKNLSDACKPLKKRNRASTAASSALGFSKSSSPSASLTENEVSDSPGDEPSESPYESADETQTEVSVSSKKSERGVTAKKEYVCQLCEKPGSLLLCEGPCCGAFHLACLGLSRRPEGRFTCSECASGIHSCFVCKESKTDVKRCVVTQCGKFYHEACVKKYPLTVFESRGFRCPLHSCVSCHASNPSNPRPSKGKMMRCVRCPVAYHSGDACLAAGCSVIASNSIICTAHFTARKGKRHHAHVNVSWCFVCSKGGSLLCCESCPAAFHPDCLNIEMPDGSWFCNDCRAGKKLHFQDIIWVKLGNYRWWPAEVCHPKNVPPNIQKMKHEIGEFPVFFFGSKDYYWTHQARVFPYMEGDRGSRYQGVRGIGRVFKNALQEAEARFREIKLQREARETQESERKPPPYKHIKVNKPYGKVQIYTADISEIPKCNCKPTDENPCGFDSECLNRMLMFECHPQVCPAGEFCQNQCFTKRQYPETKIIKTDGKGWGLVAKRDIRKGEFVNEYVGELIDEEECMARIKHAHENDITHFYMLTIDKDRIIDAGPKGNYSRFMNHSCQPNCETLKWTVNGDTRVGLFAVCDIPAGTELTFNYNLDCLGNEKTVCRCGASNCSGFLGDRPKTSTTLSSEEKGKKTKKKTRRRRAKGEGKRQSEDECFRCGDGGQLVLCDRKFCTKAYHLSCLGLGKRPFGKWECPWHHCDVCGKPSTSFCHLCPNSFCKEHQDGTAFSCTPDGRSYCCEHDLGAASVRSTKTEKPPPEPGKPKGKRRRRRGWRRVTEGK

[2] = molecular target: Bifunctional protein GlmU (Mycobacterium tuberculosis, UniProt P9WMN3); assay: Inhibitors of Mycobacterial Glucosamine-1-phosphate acetyl transferase (GlmU). Secondary screen.; parameters: species or system Mycobacterium tuberculosis H37Rv
[3] = molecular target: T4, Induced myeloid leukemia cell differentiation protein Mcl-1 (Homo sapiens, UniProt Q07820); assay type: functional
Bcl-2-like protein 1 = Bcl-2-like protein 1 (Homo sapiens, UniProt Q07817); assay: blockers of BCLXL peptide binding – biochemical, fluorescence polarization, 1536-well, selectivity assay for MCL1 inhibitor project, dose response (AID 2218)
[4] = molecular target: T4, Induced myeloid leukemia cell differentiation protein Mcl-1; assay: blockers of MCL1 binding to BIM peptide – biochemical, fluorescence polarization, BIM-BH3 peptide, 1536-well, dose response (AID 2217)
[5] = molecular target: DNA (cytosine-5)-methyltransferase 1 (Homo sapiens, UniProt P26358); assay: inhibition of DNA methylation by DNMT1 – biochemical, fluorescent molecular beacon, confirmation (AID 602386); assay type: functional
[6] = A Cell Based Secondary Assay To Explore Cytotoxicity of Compounds that Sensitize Mycobacterium Tuberculosis to Beta-Lactam Antibiotics.; assay type: functional
Aspartyl aminopeptidase = molecular target: T5, Aspartyl aminopeptidase (Plasmodium falciparum 3D7, UniProt Q8I2J3)
T5 sequence (Q8I2J3 whole entry): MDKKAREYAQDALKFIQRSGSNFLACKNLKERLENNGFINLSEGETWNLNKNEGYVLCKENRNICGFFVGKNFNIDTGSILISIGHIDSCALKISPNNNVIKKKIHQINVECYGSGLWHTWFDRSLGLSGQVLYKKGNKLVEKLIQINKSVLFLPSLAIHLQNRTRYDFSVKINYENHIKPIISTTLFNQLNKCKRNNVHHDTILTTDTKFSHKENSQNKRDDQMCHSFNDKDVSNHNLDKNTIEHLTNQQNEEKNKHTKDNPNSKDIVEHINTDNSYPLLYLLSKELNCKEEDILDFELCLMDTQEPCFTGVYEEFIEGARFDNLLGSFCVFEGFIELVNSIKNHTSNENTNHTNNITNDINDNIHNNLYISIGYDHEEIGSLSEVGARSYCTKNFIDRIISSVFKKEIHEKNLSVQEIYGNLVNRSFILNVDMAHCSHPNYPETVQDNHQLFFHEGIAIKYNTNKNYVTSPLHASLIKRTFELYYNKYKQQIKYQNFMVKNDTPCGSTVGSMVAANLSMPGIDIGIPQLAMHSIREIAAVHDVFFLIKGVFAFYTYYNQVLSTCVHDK

Procathepsin L = Procathepsin L (Homo sapiens, UniProt P07711)
[7] = molecular target: Mothers against decapentaplegic homolog 3 (Homo sapiens, UniProt P84022); assay: blockers of Smad3 complex formation in lysate – cell lysate, secondary confirmation, chemiluminescent ELISA, HEK293 lysate, dose response (AID 1058); assay type: functional
[8] = A cytotoxicity screen of small molecule inhibitors of the PhoP region in Salmonella typhi identified in the primary screen. [Related pubchem assays: 1850, 1864, 1985 ]; assay type: functional
[9] = molecular target: Peroxisome proliferator-activated receptor gamma/Nuclear receptor coactivator 2 (Homo sapiens, UniProt P37231); assay type: functional;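 also: agonist potency for raising coactivator recruitment to the receptor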
[10] = molecular target: Peroxisome proliferator-activated receptor gamma/Nuclear receptor coactivator 1 (Homo sapiens, UniProt P37231); assay type: functional;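 also: agonist potency as compounds enhance coactivator SRC-1 recruitment to PPARgamma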
[11] = molecular target: Peroxisome proliferator-activated receptor gamma/Nuclear receptor coactivator 3 (Homo sapiens, UniProt P37231); assay type: functional;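 also: agonist potency for raising coactivator recruitment to the receptor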
[12] = molecular target: Luciferin 4-monooxygenase (Photinus pyralis, UniProt P08659); assay: inhibition of purified Photinus pyralis luciferase – biochemical, luminescence, dose response (AID 1891)
[13] = Luminescence Cell-Based Dose Confirmation HTS to Identify Inhibitors of Platelet Dense Granule Release. [Related pubchem assays: 1663 (Primary HTS), 1678 (Summary of Project)]; assay type: functional

Chain of Mothers against decapentaplegic homolog 3 (P84022 whole entry): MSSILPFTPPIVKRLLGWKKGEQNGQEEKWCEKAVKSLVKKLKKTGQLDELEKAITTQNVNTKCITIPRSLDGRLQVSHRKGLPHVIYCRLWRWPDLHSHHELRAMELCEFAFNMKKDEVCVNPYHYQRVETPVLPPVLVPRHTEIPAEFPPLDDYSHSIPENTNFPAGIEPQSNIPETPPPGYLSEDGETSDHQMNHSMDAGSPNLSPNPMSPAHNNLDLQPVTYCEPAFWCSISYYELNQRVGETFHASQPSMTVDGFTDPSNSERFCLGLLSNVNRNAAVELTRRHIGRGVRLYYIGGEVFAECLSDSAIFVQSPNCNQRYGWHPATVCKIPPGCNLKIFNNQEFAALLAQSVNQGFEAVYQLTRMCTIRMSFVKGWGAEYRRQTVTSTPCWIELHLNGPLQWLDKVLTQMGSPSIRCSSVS
Chain of Peroxisome proliferator-activated receptor gamma/Nuclear receptor coactivator 3 (P37231 whole entry): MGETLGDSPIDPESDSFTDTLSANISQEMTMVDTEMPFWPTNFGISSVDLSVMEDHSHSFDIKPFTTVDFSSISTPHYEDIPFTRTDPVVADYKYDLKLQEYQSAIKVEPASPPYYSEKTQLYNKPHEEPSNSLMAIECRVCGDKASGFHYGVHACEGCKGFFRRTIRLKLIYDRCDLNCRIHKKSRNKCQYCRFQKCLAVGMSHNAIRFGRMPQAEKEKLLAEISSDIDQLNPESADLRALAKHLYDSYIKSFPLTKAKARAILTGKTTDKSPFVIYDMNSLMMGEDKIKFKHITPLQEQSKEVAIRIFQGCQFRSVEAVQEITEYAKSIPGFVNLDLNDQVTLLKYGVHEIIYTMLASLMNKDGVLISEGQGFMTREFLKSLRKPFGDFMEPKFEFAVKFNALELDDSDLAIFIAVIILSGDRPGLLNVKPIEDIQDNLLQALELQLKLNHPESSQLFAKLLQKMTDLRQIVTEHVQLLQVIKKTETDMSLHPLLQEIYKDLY
Chain of Peroxisome proliferator-activated receptor gamma/Nuclear receptor coactivator 3 (Q9Y6Q9 whole entry, further chain): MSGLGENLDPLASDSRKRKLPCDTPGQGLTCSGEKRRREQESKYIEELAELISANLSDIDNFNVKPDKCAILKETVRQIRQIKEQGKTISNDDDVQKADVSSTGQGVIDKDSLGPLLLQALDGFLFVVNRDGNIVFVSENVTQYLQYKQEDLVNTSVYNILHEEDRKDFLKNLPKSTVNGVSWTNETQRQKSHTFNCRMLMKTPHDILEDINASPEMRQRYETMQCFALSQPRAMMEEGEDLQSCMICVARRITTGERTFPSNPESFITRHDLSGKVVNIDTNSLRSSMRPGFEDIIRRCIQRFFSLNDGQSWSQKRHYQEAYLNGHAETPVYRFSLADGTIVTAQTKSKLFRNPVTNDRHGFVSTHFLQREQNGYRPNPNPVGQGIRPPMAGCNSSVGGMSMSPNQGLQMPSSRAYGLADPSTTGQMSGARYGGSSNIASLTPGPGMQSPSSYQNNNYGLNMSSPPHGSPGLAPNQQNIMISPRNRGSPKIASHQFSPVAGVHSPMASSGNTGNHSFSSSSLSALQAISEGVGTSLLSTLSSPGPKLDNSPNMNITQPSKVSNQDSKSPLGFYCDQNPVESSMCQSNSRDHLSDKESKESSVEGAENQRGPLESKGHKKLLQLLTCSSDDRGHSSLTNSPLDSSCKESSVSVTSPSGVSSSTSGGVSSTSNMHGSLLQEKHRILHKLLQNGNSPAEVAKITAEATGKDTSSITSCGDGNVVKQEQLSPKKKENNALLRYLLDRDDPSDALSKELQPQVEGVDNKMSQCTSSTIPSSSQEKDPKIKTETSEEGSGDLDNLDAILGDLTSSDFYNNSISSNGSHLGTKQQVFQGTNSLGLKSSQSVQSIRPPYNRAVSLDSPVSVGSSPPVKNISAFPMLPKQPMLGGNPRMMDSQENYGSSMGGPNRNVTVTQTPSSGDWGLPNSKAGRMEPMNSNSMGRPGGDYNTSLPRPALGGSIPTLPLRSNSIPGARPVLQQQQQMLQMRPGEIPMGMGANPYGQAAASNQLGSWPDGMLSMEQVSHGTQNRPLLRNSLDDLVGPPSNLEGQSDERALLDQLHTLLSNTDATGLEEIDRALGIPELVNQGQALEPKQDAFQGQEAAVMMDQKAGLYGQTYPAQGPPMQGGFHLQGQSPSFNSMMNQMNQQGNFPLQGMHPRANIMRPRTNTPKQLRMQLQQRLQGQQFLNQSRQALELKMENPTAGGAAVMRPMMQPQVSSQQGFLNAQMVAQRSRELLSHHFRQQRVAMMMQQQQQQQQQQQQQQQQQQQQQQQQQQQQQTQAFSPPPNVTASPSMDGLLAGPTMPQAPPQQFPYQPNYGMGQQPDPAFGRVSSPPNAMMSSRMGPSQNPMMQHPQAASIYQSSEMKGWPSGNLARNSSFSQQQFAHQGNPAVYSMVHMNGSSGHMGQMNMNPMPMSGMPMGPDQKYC
Chain of Peroxisome proliferator-activated receptor gamma/Nuclear receptor coactivator 2 (P37231 whole entry): as the sequence (P37231 whole entry) above
Chain of Peroxisome proliferator-activated receptor gamma/Nuclear receptor coactivator 2 (Q15596 whole entry, further chain): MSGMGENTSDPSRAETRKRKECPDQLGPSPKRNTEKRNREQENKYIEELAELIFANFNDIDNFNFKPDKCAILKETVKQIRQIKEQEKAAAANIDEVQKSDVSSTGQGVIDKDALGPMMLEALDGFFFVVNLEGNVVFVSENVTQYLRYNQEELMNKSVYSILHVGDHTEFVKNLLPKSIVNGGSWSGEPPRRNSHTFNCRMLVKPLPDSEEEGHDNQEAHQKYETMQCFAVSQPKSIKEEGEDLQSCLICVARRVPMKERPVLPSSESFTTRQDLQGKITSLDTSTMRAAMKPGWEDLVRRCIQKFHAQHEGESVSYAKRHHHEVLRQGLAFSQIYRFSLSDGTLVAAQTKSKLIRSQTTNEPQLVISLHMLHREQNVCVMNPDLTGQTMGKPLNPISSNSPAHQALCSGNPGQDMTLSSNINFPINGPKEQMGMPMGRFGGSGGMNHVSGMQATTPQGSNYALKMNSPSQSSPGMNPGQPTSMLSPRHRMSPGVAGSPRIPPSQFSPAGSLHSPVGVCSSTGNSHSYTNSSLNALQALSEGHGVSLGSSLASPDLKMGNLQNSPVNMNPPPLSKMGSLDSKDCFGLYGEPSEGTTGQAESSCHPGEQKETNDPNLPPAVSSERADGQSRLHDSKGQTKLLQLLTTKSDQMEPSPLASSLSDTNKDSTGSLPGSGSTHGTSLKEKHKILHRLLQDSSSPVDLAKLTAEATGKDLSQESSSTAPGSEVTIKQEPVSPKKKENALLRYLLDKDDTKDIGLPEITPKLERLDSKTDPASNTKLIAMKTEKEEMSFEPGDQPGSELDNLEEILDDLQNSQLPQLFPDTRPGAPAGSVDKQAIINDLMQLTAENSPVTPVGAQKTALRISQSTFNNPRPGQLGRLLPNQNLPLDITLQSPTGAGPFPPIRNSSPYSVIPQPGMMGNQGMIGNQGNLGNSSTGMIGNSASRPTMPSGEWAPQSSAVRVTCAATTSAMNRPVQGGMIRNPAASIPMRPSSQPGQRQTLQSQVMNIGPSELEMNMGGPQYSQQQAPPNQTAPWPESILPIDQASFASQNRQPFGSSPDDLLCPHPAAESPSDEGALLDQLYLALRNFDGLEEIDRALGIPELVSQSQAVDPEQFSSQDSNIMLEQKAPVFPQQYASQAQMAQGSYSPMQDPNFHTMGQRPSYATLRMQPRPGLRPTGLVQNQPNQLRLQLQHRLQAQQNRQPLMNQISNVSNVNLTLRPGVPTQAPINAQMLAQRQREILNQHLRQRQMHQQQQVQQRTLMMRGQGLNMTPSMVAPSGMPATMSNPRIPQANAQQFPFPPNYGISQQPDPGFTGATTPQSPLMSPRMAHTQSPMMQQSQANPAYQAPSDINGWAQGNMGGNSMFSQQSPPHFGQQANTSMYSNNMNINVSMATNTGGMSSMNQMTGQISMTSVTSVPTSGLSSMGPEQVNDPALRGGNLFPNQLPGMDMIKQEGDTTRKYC
T4 sequence (Q07820 whole entry): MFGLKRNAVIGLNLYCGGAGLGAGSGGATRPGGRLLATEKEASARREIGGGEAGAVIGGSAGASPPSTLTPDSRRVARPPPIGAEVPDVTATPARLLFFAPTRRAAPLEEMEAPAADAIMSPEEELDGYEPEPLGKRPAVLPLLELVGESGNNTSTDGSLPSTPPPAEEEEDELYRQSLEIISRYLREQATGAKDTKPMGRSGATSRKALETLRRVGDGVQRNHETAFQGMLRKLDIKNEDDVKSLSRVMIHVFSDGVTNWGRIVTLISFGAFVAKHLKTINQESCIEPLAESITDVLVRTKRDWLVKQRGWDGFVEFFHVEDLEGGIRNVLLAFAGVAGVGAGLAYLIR
Chain of Procathepsin L (P07711 whole entry): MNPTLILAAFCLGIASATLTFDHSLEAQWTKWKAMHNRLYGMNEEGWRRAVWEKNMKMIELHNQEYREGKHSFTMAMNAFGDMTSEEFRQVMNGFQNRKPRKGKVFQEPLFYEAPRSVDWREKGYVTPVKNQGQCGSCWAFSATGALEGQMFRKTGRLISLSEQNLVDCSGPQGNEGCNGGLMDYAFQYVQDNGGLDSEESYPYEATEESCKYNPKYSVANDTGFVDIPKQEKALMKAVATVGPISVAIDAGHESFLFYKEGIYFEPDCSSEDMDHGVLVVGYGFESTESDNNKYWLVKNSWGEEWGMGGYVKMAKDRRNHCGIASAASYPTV

O=C(O)c1ccc(-n2cccc2/C=N\NC(=O)c2cc3cc(Br)ccc3o2)cc1
IC50 (Aminopeptidase N): 37.1 µM (active) | AC50 (Caspase-6): 0.801 µM (active) | AC50 [1]: 7.63 µM (active) | IC50 [2]: 66 µM (active) | IC50 [3]: 1.72 µM (active) | IC50 (Bcl-2-like protein 1): > 109 µM (not active) | IC50 [4]: 12.1 µM (not active) | IC50 [5]: 4.36 µM (active)

COc1cc(C(=O)NC2CCCCC2)ccc1OCc1ccc(Cl)cc1Cl
CC50 [6]: 24.7 µM (active)

Cc1c(C(=O)Nn2cnnc2)oc2ccccc12
IC50 (Aspartyl aminopeptidase): 0.664 µM (active) | IC50 (Procathepsin L): > 59.6 µM (not active)

COc1ccccc1C(c1cc2c(cc1O)OCO2)N1CCOCC1 (stereo unspecified)
IC50 [7]: 35.3 µM (not active) and < 2.5 µM (not active)

O=C(Nc1ccc([N+](=O)[O-])cc1)Nn1cnnc1
IC50 (Aspartyl aminopeptidase): 1.03 µM (active) | IC50 (Procathepsin L): > 59.6 µM (not active)

O=C(c1cc2c(s1)-c1ccccc1S(=O)(=O)C2)N1CCN(Cc2ccccc2)CC1
EC50 [8]: > 50 µM (active)

O=C(COC(=O)c1sc2ccccc2c1Cl)NC1CCCCC1
EC50 [9]: > 79.4 µM (not active) | EC50 [10]: > 79.4 µM (not active) | EC50 [11]: > 79.4 µM (not active) | EC50 [12]: > 112 µM (not active) | EC50 [13]: > 112 µM (not active)

CCOC(=O)c1nn(-c2ccc(F)cc2)c2nc(Nc3ccccc3)cc(=O)n12
CC50 [6]: > 40 µM (active)

NOC(=O)C1=CC(=C(c2ccc(O)c(C(=O)ON)c2)c2ccc(O)c(C(=O)ON)c2)C=CC1=O
IC50 [7]: 22.5 µM (not active)

COC(=O)c1c(-c2cccc(C)c2)csc1N
EC50 [8]: > 50 µM (active)

Cc1cc(C)c(C#N)c(SCc2cc3c(cc2Cl)OCO3)n1
EC50 [9]: > 79.4 µM (not active) | EC50 [10]: > 79.4 µM (not active) | EC50 [11]: > 79.4 µM (not active)
